Patent US10167262B2, “Herbicidal substituted 3-arylpyrazoles” (FMC CORPORATION, priority 2014, dated 2019)

Tests used:
Test in all cases: Test E pre-/postemergence greenhouse test, plant response rating 0-100
Assay type in all cases: in vivo
[1] = system: green foxtail (Setaria viridis); conditions: Preemergence, scale 0 to 100
[2] = system: giant foxtail (Setaria faberii); conditions: Preemergence, scale 0 to 100
[3] = system: large (Lg) crabgrass (Digitaria sanguinalis); conditions: Preemergence, scale 0 to 100
[4] = system: yellow nutsedge (Cyperus esculentus); conditions: Preemergence, scale 0 to 100
[5] = system: smartweed (ladysthumb smartweed, Polygonum persicaria); conditions: Preemergence, scale 0 to 100
corn (Zea mays) = conditions: scale 0 to 100; for Corn plant response rating: Preemergence
How it was run: (§1)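 Rated visually against controls 14-21 days after treatment on a 0-100 scale (100 = complete control). Pre- and postemergence sprays used a non-phytotoxic solvent mixture with surfactant. Preemergence seeds were in silt loam; postemergence plants were in peat-based medium at the 1- to 4-leaf stage (2-18 cm).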

[6] = system: ragweed (common ragweed, Ambrosia elatior); conditions: Preemergence, scale 0 to 100
How it was run: as §1

[7] = system: surinam grass (Brachiaria decumbens); conditions: Preemergence, scale 0 to 100
How it was run: as §1

soybean (Glycine max) = conditions: scale 0 to 100; for Soybean plant response rating: Preemergence
How it was run: as §1

[8] = system: field bindweed (Convolvulus arvensis); conditions: scale 0 to 100; for Field Bindweed plant response rating: Preemergence
How it was run: as §1

[9] = system: smartweed (ladysthumb smartweed, Polygonum persicaria); conditions: Postemergence, scale 0 to 100
[10] = system: Italian ryegrass (Lolium multiflorum); conditions: scale 0 to 100; for Ryegrass, Italian plant response rating: Preemergence
How it was run: as §1

[11] = system: goosegrass (Eleusine indica); conditions: Preemergence, scale 0 to 100
[12] = system: johnsongrass (Sorghum halepense); conditions: Preemergence, scale 0 to 100
[13] = system: morningglory (Ipomoea coccinea); conditions: Preemergence, scale 0 to 100

SMILES: O=C(c1ccccc1)c1cn(CO)nc1-c1cc(Cl)cc(Cl)c1 [Compound 15, [3-(3,5-dichlorophenyl)-1-(hydroxymethyl)-1H-pyrazol-4-yl]phenylmethanone]
- Foxtail, Green plant response rating ([1]; 31 g ai/ha): 0
- Foxtail, Green plant response rating ([1]; 62 g ai/ha): 0
- Foxtail, Green plant response rating ([1]; 125 g ai/ha): 0
- Foxtail, Green plant response rating ([1]; 250 g ai/ha): 0
- Foxtail, Green plant response rating ([1]; 500 g ai/ha): 0
- Foxtail, Giant plant response rating ([2]; 31 g ai/ha): 0
- Foxtail, Giant plant response rating ([2]; 62 g ai/ha): 0
- Foxtail, Giant plant response rating ([2]; 125 g ai/ha): 0
- Foxtail, Giant plant response rating ([2]; 250 g ai/ha): 0
- Foxtail, Giant plant response rating ([2]; 500 g ai/ha): 0
- Crabgrass, Large plant response rating ([3]; 31 g ai/ha): 0
- Crabgrass, Large plant response rating ([3]; 62 g ai/ha): 0
- Crabgrass, Large plant response rating ([3]; 125 g ai/ha): 0
- Crabgrass, Large plant response rating ([3]; 250 g ai/ha): 0
- Crabgrass, Large plant response rating ([3]; 500 g ai/ha): 0
- Nutsedge, Yellow plant response rating ([4]; 31 g ai/ha): 15
- Nutsedge, Yellow plant response rating ([4]; 62 g ai/ha): 35
- Nutsedge, Yellow plant response rating ([4]; 125 g ai/ha): 10
- Nutsedge, Yellow plant response rating ([4]; 250 g ai/ha): 0
- Nutsedge, Yellow plant response rating ([4]; 500 g ai/ha): 0
- Smartweed plant response rating ([5]; 31 g ai/ha): 0
- Smartweed plant response rating ([5]; 62 g ai/ha): 0
- Smartweed plant response rating ([5]; 125 g ai/ha): 0
- Smartweed plant response rating ([5]; 250 g ai/ha): 100
- Smartweed plant response rating ([5]; 500 g ai/ha): 100
- Corn plant response rating (corn (Zea mays); 31 g ai/ha): 0
- Corn plant response rating (corn (Zea mays); 62 g ai/ha): 0
- Corn plant response rating (corn (Zea mays); 125 g ai/ha): 0
- Corn plant response rating (corn (Zea mays); 250 g ai/ha): 0
- Corn plant response rating (corn (Zea mays); 500 g ai/ha): 0
- Corn plant response rating (crop injury, 0 = no effect, 100 = complete kill) at 31 g/ha (corn (Zea mays); Zea mays, post-emergence, Postemergence, 31 g ai/ha): 0%
- Corn plant response rating (crop injury, 0 = no effect, 100 = complete kill) at 62 g/ha (corn (Zea mays); Zea mays, post-emergence, Postemergence, 62 g ai/ha): 0%
- Corn plant response rating (crop injury, 0 = no effect, 100 = complete kill) at 125 g/ha (corn (Zea mays); Zea mays, post-emergence, Postemergence, 125 g ai/ha): 0%
- Corn plant response rating (crop injury, 0 = no effect, 100 = complete kill) at 250 g/ha (corn (Zea mays); Zea mays, post-emergence, Postemergence, 250 g ai/ha): 0%
- Corn plant response rating (crop injury, 0 = no effect, 100 = complete kill) at 500 g/ha (corn (Zea mays); Zea mays, post-emergence, Postemergence, 500 g ai/ha): 0%
- Ragweed plant response rating ([6]; 31 g ai/ha): 0
- Ragweed plant response rating ([6]; 62 g ai/ha): 0
- Ragweed plant response rating ([6]; 125 g ai/ha): 0
- Ragweed plant response rating ([6]; 250 g ai/ha): 95
- Ragweed plant response rating ([6]; 500 g ai/ha): 100
- Surinam Grass plant response rating ([7]; 31 g ai/ha): 0
- Surinam Grass plant response rating ([7]; 62 g ai/ha): 0
- Surinam Grass plant response rating ([7]; 125 g ai/ha): 0
- Surinam Grass plant response rating ([7]; 250 g ai/ha): 0
- Surinam Grass plant response rating ([7]; 500 g ai/ha): 0
- plant injury at 31 g/ha (soybean (Glycine max); Glycine max, post-emergence, Postemergence, 31 g ai/ha): 0%
- plant injury at 62 g/ha (soybean (Glycine max); Glycine max, post-emergence, Postemergence, 62 g ai/ha): 0%
- plant injury at 125 g/ha (soybean (Glycine max); Glycine max, post-emergence, Postemergence, 125 g ai/ha): 0%
- plant injury at 250 g/ha (soybean (Glycine max); Glycine max, post-emergence, Postemergence, 250 g ai/ha): 0%
- plant injury at 500 g/ha (soybean (Glycine max); Glycine max, post-emergence, Postemergence, 500 g ai/ha): 0%
- Soybean plant response rating (soybean (Glycine max); 31 g ai/ha): 0
- Soybean plant response rating (soybean (Glycine max); 62 g ai/ha): 0
- Soybean plant response rating (soybean (Glycine max); 125 g ai/ha): 0
- Soybean plant response rating (soybean (Glycine max); 250 g ai/ha): 0
- Soybean plant response rating (soybean (Glycine max); 500 g ai/ha): 0
- pest or weed control at 31 g/ha ([8]; Convolvulus arvensis, post-emergence, Postemergence, 31 g ai/ha): 0%
- pest or weed control at 62 g/ha ([8]; Convolvulus arvensis, post-emergence, Postemergence, 62 g ai/ha): 0%
- pest or weed control at 125 g/ha ([8]; Convolvulus arvensis, post-emergence, Postemergence, 125 g ai/ha): 0%
- pest or weed control at 250 g/ha ([8]; Convolvulus arvensis, post-emergence, Postemergence, 250 g ai/ha): 0%
- pest or weed control at 500 g/ha ([8]; Convolvulus arvensis, post-emergence, Postemergence, 500 g ai/ha): 0%
- Field Bindweed plant response rating ([8]; 31 g ai/ha): 0
- Field Bindweed plant response rating ([8]; 62 g ai/ha): 0
- Field Bindweed plant response rating ([8]; 125 g ai/ha): 0
- Field Bindweed plant response rating ([8]; 250 g ai/ha): 0
- Field Bindweed plant response rating ([8]; 500 g ai/ha): 0
- Plant response rating, Smartweed ([9]; 31 g ai/ha): 0
- Plant response rating, Smartweed ([9]; 62 g ai/ha): 75
- pest or weed control at 31 g/ha ([10]; Lolium multiflorum, post-emergence, Postemergence, 31 g ai/ha): 0%
- pest or weed control at 62 g/ha ([10]; Lolium multiflorum, post-emergence, Postemergence, 62 g ai/ha): 0%
- pest or weed control at 125 g/ha ([10]; Lolium multiflorum, post-emergence, Postemergence, 125 g ai/ha): 0%
- pest or weed control at 250 g/ha ([10]; Lolium multiflorum, post-emergence, Postemergence, 250 g ai/ha): 0%
- pest or weed control at 500 g/ha ([10]; Lolium multiflorum, post-emergence, Postemergence, 500 g ai/ha): 0%
- Ryegrass, Italian plant response rating ([10]; 31 g ai/ha): 0
- Ryegrass, Italian plant response rating ([10]; 62 g ai/ha): 0
- Ryegrass, Italian plant response rating ([10]; 125 g ai/ha): 0
- Ryegrass, Italian plant response rating ([10]; 250 g ai/ha): 0
- Ryegrass, Italian plant response rating ([10]; 500 g ai/ha): 0
- Goosegrass plant response rating ([11]; 31 g ai/ha): 0
- Goosegrass plant response rating ([11]; 125 g ai/ha): 0
- Goosegrass plant response rating ([11]; 250 g ai/ha): 0
- Goosegrass plant response rating ([11]; 500 g ai/ha): 0
- Johnsongrass plant response rating ([12]; 31 g ai/ha): 0
- Johnsongrass plant response rating ([12]; 62 g ai/ha): 0
- Johnsongrass plant response rating ([12]; 125 g ai/ha): 0
- Johnsongrass plant response rating ([12]; 250 g ai/ha): 0
- Johnsongrass plant response rating ([12]; 500 g ai/ha): 0
- Morningglory plant response rating ([13]; 62 g ai/ha): 0
- Morningglory plant response rating ([13]; 125 g ai/ha): 0
- Morningglory plant response rating ([13]; 250 g ai/ha): 0
- Morningglory plant response rating ([13]; 500 g ai/ha): 0
